Where a SMILES comes first, the peptide text is derived from it.

One series has as its target Human Cat B (Homo sapiens, UniProt P07858). Particulars: 12.5 μM defensin, 125 nM Cat B (S:E 100), 0.1 M sodium acetate pH 5.5, 2 mM DTT, 0.01% Brij35, 4 h, 30°C; RP-HPLC, 220 nm.
The target in a further series is Human Cat L (Homo sapiens, UniProt P07711). Conditions: 12.5 μM defensin, 125 nM Cat L (S:E 100), 0.1 M sodium acetate pH 5.5, 2 mM DTT, 0.01% Brij35, 4 h, 30°C; RP-HPLC, 220 nm.
The target of the next series is Human Cat K (Homo sapiens, UniProt P43235). Conditions: 12.5 μM defensin, 125 nM Cat K (S:E 100), 0.1 M sodium acetate pH 5.5, 2 mM DTT, 0.01% Brij35, 4 h, 30°C; RP-HPLC, 220 nm.
Chain of Human Cat K (P43235 115-329): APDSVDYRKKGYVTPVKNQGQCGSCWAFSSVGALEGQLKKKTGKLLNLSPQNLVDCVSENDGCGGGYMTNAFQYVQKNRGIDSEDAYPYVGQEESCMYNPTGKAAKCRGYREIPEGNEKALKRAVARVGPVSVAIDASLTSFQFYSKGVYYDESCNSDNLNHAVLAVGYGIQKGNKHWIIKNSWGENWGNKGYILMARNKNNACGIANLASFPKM
Series [1] deals with chymotrypsin. Conditions: 12.5 μM defensin, 125 nM chymotrypsin (S:E 100), 0.1 M Tris/HCl pH 7.8, 20 mM CaCl2, 4 h, 30°C; RP-HPLC, 220 nm.
Protocol: (§4) Chromatograms were analyzed by running the ChromoQuest Chromatography Workstation (Thermo Fisher Scientific, Les Ulis, France).
Series [2] deals with Human neutrophil elastase (HNE) (Homo sapiens, UniProt P08246). Particulars: 12.5 μM defensin, 125 nM HNE (S:E 100), 0.05 M HEPES pH 7.4, NP40 0.05%, 150 mM NaCl, 4 h, 30°C; RP-HPLC, 220 nm.
Chain of Human neutrophil elastase (HNE) (Homo sapiens, UniProt P08246) (P08246 30-267): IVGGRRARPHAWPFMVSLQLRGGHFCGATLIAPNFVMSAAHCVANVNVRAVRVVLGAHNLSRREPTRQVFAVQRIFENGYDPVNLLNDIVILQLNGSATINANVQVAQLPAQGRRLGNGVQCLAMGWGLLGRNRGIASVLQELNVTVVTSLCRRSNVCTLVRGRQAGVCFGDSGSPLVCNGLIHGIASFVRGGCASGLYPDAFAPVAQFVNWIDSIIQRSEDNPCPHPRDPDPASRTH
Protocol: as §4
A further series has as its target Human Cat D (Homo sapiens, UniProt P07339). Particulars: 12.5 μM defensin, 125 nM Cat D (S:E 100), 0.1 M sodium citrate pH 3.5, 200 mM NaCl, 4 h, 30°C; RP-HPLC, 220 nm.
The test system of series [3] is Escherichia coli ATCC 25922. Conditions: radial diffusion assay, n = 3. The source says:
(§1) The reaction mixture without defensin added was used as negative control and the defensin alone was used as positive control. […] The strain Salmonella enterica serovar Typhimurium LT2 was kindly provided by Dr Benoît Doublet (INRA, UMR1282 ISP, Nouzilly, France). The strain Streptococcus salivarius was a clinical strain isolated from blood culture, kindly provided by Dr Christine Delorme (INRA, UMR1319 MICALIS, Jouy en Josas, France).
(§2) A Mann-Whitney non-parametric U test was used to compare the minimal inhibitory concentration of each defensin before and after incubation with cathepsins.

Series [4] relates to Staphylococcus aureus ATCC 29740. Particulars: radial diffusion assay; defensin alone or reaction mixture after 4 h at 30°C with cathepsin (S:E molar ratio 100), 0.1 M sodium acetate pH 5.5, 2 mM DTT, 0.01% Brij35; mean ± SEM, n = 3; NI: no inhibition detected.
Excerpt: as §1, §2

The next series has as its target Human Cat S (Homo sapiens, UniProt P25774). Particulars: 12.5 μM defensin, 125 nM Cat S (S:E 100), 0.1 M sodium acetate pH 5.5, 2 mM DTT, 0.01% Brij35, 4 h, 30°C; RP-HPLC, 220 nm.
For series [5], the system named is trypsin. Particulars: 12.5 μM defensin, 125 nM trypsin (S:E 100), 0.1 M Tris/HCl pH 8.0, 50 mM CaCl2, 100 mM NaCl, 4 h, 30°C; RP-HPLC, 220 nm.
Protocol: as §4
Another series concerns the target Human Cat H (Homo sapiens, UniProt P09668). Particulars: 12.5 μM defensin, 125 nM Cat H (S:E 100), 0.1 M sodium acetate pH 5.5, 2 mM DTT, 0.01% Brij35, 4 h, 30°C; RP-HPLC, 220 nm.
The test system of series [6] is Listeria monocytogenes strain EGD. The series is described as follows: Radial diffusion antibacterial assay (MIC). It is filed as cell-based. Conditions: Table 3, mean +/- SEM, n = 3. On the procedure:
(§3) The antibacterial activity of purified AvBD2 and AvBD7 and of each enzyme-AvBD reaction mixture was measured by radial diffusion assay as described previously, allowing the determination of the minimal inhibitory concentration (MIC) against Staphylococcus aureus ATCC 29740 and against Escherichia coli ATCC 25922 as representative Gram-positive and Gram-negative strains, respectively. The reaction mixture without defensin added was used as negative control and the defensin alone was used as positive control. For AvBD7 and its major degradation product, MIC was determined towards three Gram-negative and three Gram-positive bacterial strains, respectively, including Pseudomonas aeruginosa ATCC 25010, Escherichia coli ATCC 25922, Salmonella enterica serovar Typhimurium LT2 ATCC 700720, Listeria monocytogenes strain EGD, Staphylococcus aureus ATCC 29740, and Streptococcus salivarius JIM 8780. The strain Salmonella enterica serovar Typhimurium LT2 was kindly provided by Dr Benoît Doublet (INRA, UMR1282 ISP, Nouzilly, France). The strain Streptococcus salivarius was a clinical strain isolated from blood culture, kindly provided by Dr Christine Delorme (INRA, UMR1319 MICALIS, Jouy en Josas, France).

Series [7] has as its system Streptococcus salivarius JIM 8780. The series is described as follows: Radial diffusion antibacterial assay (MIC). Conditions: Table 3, mean +/- SEM, n = 3. Format: cell-based. On the procedure: as §3
The test system of series [8] is Salmonella enterica serovar Typhimurium LT2 ATCC 700720. The series can be described thus: Radial diffusion antibacterial assay (MIC). Format: cell-based. Conditions: Table 3, mean +/- SEM, n = 3. On the procedure: as §3
In series [9] the test system is Pseudomonas aeruginosa ATCC 25010. The series can be described thus: Radial diffusion antibacterial assay (MIC). It is filed as cell-based. Particulars: Table 3, mean +/- SEM, n = 3. On the procedure:
as §3

For the next series, the system named is Cat D. The series is described as follows: 125 nM Cat D in 0.1 M sodium citrate buffer, pH 3.5, 200 mM NaCl. Conditions: human, 30°C, up to 4 h.
Series [10] has as its system Human neutrophil elastase (HNE). The series is described as follows: 125 nM HNE in 0.05 M HEPES buffer, pH 7.4, NP40 0.05% 150 mM NaCl. Particulars: 30°C, up to 4 h.
Series [11] deals with trypsin. The series can be described thus: 125 nM trypsin in 0.1 M Tris/HCl buffer, pH 8.0, 50 mM CaCl2, 100 mM NaCl. Conditions: 30°C, up to 4 h.
Series [12] relates to chymotrypsin. The series can be described thus: 125 nM chymotrypsin in 0.1 M Tris/HCl buffer, pH 7.8, 20 mM CaCl2. Particulars: 30°C, up to 4 h.
For another series, the system named is Cat H. The series is described as follows: 125 nM Cat H in 0.1 M sodium acetate buffer, pH 5.5 containing 2 mM DTT and 0.01% Brij35. Conditions: human, 30°C, up to 4 h.
In another series the test system is Cat B. The series is described as follows: 125 nM Cat B in 0.1 M sodium acetate buffer, pH 5.5 containing 2 mM DTT and 0.01% Brij35. Conditions: human, 30°C, up to 4 h.
The next series concerns Cat L. The series can be described thus: 125 nM Cat L in 0.1 M sodium acetate buffer, pH 5.5 containing 2 mM DTT and 0.01% Brij35. Conditions: human, 30°C, up to 4 h.
In a further series the test system is Cat K. The series can be described thus: 125 nM Cat K in 0.1 M sodium acetate buffer, pH 5.5 containing 2 mM DTT and 0.01% Brij35. Particulars: human, 30°C, up to 4 h.
The test system of the next series is Cat S. The series can be described thus: 125 nM Cat S in 0.1 M sodium acetate buffer, pH 5.5 containing 2 mM DTT and 0.01% Brij35. Conditions: human, 30°C, up to 4 h.

Chain of Human Cat H (P09668 98-335): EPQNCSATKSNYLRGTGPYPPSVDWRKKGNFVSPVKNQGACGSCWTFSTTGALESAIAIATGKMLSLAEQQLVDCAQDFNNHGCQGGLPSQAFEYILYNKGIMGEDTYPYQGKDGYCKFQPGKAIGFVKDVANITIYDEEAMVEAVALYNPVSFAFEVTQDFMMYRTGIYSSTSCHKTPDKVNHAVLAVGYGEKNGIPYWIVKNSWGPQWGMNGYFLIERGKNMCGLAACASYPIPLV
Chain of Human Cat D (P07339 65-412): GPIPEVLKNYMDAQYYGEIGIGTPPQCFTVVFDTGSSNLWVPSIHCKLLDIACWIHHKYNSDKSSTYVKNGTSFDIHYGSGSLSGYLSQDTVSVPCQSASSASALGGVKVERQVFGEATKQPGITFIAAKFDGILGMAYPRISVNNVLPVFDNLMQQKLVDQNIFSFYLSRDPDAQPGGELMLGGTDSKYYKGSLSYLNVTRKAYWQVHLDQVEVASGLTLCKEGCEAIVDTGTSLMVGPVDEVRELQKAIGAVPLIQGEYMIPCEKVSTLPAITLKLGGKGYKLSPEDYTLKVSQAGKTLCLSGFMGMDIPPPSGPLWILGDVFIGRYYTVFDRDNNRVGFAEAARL
Chain of Human Cat S (P25774 115-331): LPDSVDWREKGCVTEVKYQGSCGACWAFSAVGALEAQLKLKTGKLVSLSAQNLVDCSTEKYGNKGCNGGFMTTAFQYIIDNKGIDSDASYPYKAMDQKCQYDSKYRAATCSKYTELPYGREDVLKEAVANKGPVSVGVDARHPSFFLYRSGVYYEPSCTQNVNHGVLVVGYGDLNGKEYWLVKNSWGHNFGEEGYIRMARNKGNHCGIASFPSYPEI
Chain of Human Cat L (P07711 114-333): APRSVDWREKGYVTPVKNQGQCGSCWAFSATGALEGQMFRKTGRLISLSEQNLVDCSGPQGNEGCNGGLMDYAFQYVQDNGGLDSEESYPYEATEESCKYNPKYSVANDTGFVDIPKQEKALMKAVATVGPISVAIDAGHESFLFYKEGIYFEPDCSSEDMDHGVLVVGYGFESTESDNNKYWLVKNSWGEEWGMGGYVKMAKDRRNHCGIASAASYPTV
Protocol for Human Cat D: as §4

Turning to `CC[C@H](C)[C@@H]1NC(=O)[C@H](CC(C)C)NC(=O)[C@H](Cc2c[nH]cn2)NC(=O)[C@H](CO)NC(=O)[C@@H]2CCCN2C(=O)[C@@H]2CSSC[C@@H](C(=O)N[C@@H](CCCCN)C(=O)N[C@@H](Cc3c[nH]c4ccccc34)C(=O)N3CCC[C@H]3C(=O)N[C@@H](Cc3c[nH]c4ccccc34)C(=O)N[C@@H](CC(N)=O)C(=O)N[C@@H](C)C(=O)O)NC(=O)[C@@H]3CSSC[C@H](NC(=O)[C@H](Cc4ccccc4)NC(=O)[C@@H](N)CC(C)C)C(=O)N[C@@H](CCCCN)C(=O)NCC(=O)NCC(=O)N[C@@H](CO)C(=O)N[C@@H](CSSC[C@H](NC(=O)[C@H](CO)NC(=O)CNC(=O)[C@H](C(C)C)NC(=O)[C@H](CCCCN)NC1=O)C(=O)N[C@@H](Cc1ccccc1)C(=O)NCC(=O)N[C@@H](Cc1ccccc1)C(=O)N[C@@H](CCCNC(=N)N)C(=O)N[C@@H](CO)C(=O)N3)C(=O)N[C@@H](Cc1c[nH]cn1)C(=O)N[C@@H](Cc1ccccc1)C(=O)NCC(=O)NCC(=O)N2` [AvBD2] (HELM PEPTIDE1{L.F.C.K.G.G.S.C.H.F.G.G.C.P.S.H.L.I.K.V.G.S.C.F.G.F.R.S.C.C.K.W.P.W.N.A}$PEPTIDE1,PEPTIDE1,3:R3-29:R3|PEPTIDE1,PEPTIDE1,8:R3-23:R3|PEPTIDE1,PEPTIDE1,13:R3-30:R3$$$V2.0), the “Hydrolysis by Cat B” value at Human Cat B was “partially degraded”. Moreover, the “Hydrolysis by Cat L” value at Human Cat L is listed as “partially degraded”. Also, at Human Cat K, the “Hydrolysis by Cat K” value is listed as “totally digested”. For the same molecule, in the series on chymotrypsin [1], the Hydrolysis by chymotrypsin result was “did not cleave”. In addition, in [2], the “Hydrolysis by neutrophil elastase” value is reported as “did not cleave”. The “Hydrolysis by Cat D” value on Human Cat D was “did not cleave”. Also, in series [3] (defensin alone or reaction mixture after 4 h at 30°C with cathepsin (S:E molar ratio 100), 0.1 M sodium acetate pH 5.5, 2 mM DTT, 0.01% Brij35, mean ± SEM, NI: no inhibition detected), the “MIC (μM) E. Coli” value worked out at 3 ± 2 µM. Also, the “MIC (μM) S. aureus” value in series [4] is 1 ± 0 µM. Also, the “Hydrolysis by Cat S” value at Human Cat S was “partially degraded”. The Hydrolysis by trypsin entry with trypsin [5] is given as “did not cleave”. For the same molecule, the “Hydrolysis by Cat H” value on Human Cat H is given as “resistant to hydrolysis”.

For the molecule `CC[C@H](C)[C@H](N)C(=O)N1CCC[C@H]1C(=O)N[C@@H](CCCNC(=N)N)C(=O)N1CCC[C@H]1C(=O)N[C@H](C(=O)N[C@@H](CC(=O)O)C(=O)N[C@H](C(=O)N[C@H]1CSSC[C@@H]2NC(=O)[C@H](CO)NC(=O)CNC(=O)[C@H]([C@@H](C)CC)NC(=O)CNC(=O)[C@H](CC(N)=O)NC(=O)[C@H](CC(N)=O)NC(=O)[C@@H]3CSSC[C@H](NC(=O)[C@H]([C@@H](C)CC)NC(=O)CNC(=O)[C@H](CC(N)=O)NC(=O)[C@H](CCCNC(=N)N)NC(=O)[C@H](CC(C)C)NC(=O)[C@H](CCCNC(=N)N)NC1=O)C(=O)N[C@@H](Cc1ccccc1)C(=O)N1CCC[C@H]1C(=O)NCC(=O)N[C@@H]([C@@H](C)CC)C(=O)N[C@@H](CSSC[C@@H](C(=O)N[C@@H](C)C(=O)N[C@@H](CCCNC(=N)N)C(=O)NCC(=O)N[C@@H](Cc1c[nH]c4ccccc14)C(=O)N[C@@H](CCCNC(=N)N)C(=O)N[C@@H](CO)C(=O)O)NC2=O)C(=O)N[C@@H](CCCNC(=N)N)C(=O)N[C@@H](CCCNC(=N)N)C(=O)N1CCC[C@H]1C(=O)N[C@@H](Cc1ccc(O)cc1)C(=O)N[C@@H](Cc1ccc(O)cc1)C(=O)N[C@@H](Cc1c[nH]c2ccccc12)C(=O)N[C@@H]([C@@H](C)CC)C(=O)NCC(=O)N[C@@H]([C@@H](C)O)C(=O)N3)[C@@H](C)O)[C@@H](C)CC` [Ile4-AvBD7], the “MIC (μM) Listeria monocytogenes” value in series [6] is 0.2 (± 0.1) μM. In addition, the “MIC (μM) Streptococcus salivarius” value in [7] is listed as 1.0 (± 0.5) μM. Moreover, in series [8], the “MIC (μM) Salmonella Typhimurium” value is reported as 1.4 (± 0.9) μM. For the same molecule, the “MIC (μM) Pseudomonas aeruginosa” value in series [9] is on record as 0.2 (± 0.1) μM. Moreover, the “MIC (μM) Escherichia coli” value in [3] (Table 3, mean +/- SEM) is reported as 0.5 (± 0.1) μM.

As to LFCKGGSCHFGGCPSHLIKVGSCFGFRSCCKWPWNA, the not cleaved entry with Cat D is reported as “did not cleave (4 hours)”; in series [10], “did not cleave (4 hours)”; in the series with trypsin [11] it was “did not cleave (4 hours)”; in the series with chymotrypsin [12], “did not cleave (4 hours)”; with Cat H it was “resistant to hydrolysis (4 h)”.

As to “QPFIPRPIDTCRLRNGICFPGICRRPYYWIGTCNNGIGSCCARGWRS”, the not cleaved entry with Cat B is recorded as “fully resistant to hydrolysis (4 h)”; in the series on Cat L, “fully resistant to hydrolysis (4 h)”; in the series on Cat D, “did not cleave (4 hours)”; in the series on Cat S, “fully resistant to hydrolysis (4 h)”; in [10], “did not cleave (4 hours)”; in the series on trypsin [11], “did not cleave (4 hours)”. Moreover, the values for the not cleaved entry with chymotrypsin [12] and in the series on Cat H were “did not cleave (4 hours)” and “resistant to hydrolysis (4 h)”, respectively. For the same molecule, the cleaved bond result in the series on Cat K is on record as “Phe3-Ile4”.
